Where two headings read alike, the source gives them in different places.
Key:
[1] = system: RPE-Neo or RPE-MYC or RPE-MYC expressing an EGFP-Histone 2B fusion protein; assay: Phenotypic screening assay: arrest in mitosis, change in DNA content (polyploidy), cell death; type: cell-based; settings: 20 nM to 20 μM, 24, 48 or 72 hours
Method in brief: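 Compound exposure from 20 nM to 20 μM in RPE lines (Neo, MYC, or MYC with EGFP-histone H2B), seeded 18-24 h earlier; imaging at 24, 48 or 72 h read mitotic arrest or altered DNA content, with MTT for proliferation. Results reported as A–D range categories.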

[2] = system: human cancer cell line NCI-H460; assay: Tumor growth inhibition, NCI-H460 tumors in BAL B/c nude mice; type: in vivo, human tumor cell line in BAL B/c nude mice; settings: oral, 4 days-on, 3 days-off, 30% PEG300
Experimental: (§1) Six- to seven-week-old female BAL B/c nude mice were used in the human cancer cell line NCI-H460, which was derived from a lung cancer patient. Six- to seven-week-old female BAL B/c mice were used in the mouse […] cell line CT26 allograft models. 100 μL cell suspensions containing one million cells with […] (Corning, Cat. No. 354254) were implanted subcutaneously into the right flank of mice. Mice were monitored daily for well-being and weighed twice weekly. Caliper measurements of tumor sizes began when tumors became visible. Tumor volume (TV) was calculated by measuring two perpendicular diameters using the following formula: (L×W2)/2 in which L and W refer to the length and width of a tumor, respectively. When tumors reached an average size of 100 mm3, mice were first ranked according to tumor size and divided into “n” cohorts with X mice in each cohort. Each cohort was then sorted into 1 to X groups according to the random numbers size order generated by the RAND 0)function in Excel. In this way, the mice were randomized into X groups (n=4-6). Then the mice were orally administrated with vehicle (30% PEG 300) or indicated compounds at a dose volume of 5 mL/kg in a double-blinded manner. Oral administration was chosen because this is the intended route of use in the clinic. In all cases, no tumor measurement data or animals were excluded from the data analysis. Percentage of tumor growth inhibition (TGI) was calculated using the following formula: % TGI=average 100×[1−(final TV−initial TV of treatment group)/(final TV−initial TV of control group)]. As set forth in table 3 below, an values of greater than or equal to 35% and less than or equal to 45% […] is marked “C”; a value greater than 45% and less than or equal to 55% is marked “B”; a value greater than 55% and less than or equal to 70% is marked “A”; and […]

[3] = system: RPE-Neo or RPE-MYC cells; assay: MTT assay of cellular proliferation (proliferative arrest); type: cell-based; settings: read-out: Min. Effective conc. for Proliferative arrest (>50%)
[4] = Tumor growth inhibition, CT26 allograft in BAL B/c mice; type: in vivo, mouse tumor cell line in BAL B/c mice; settings: oral, 20 days, 30% PEG300
Experimental: as §1

[5] = read-out: Min. Effective conc. for Along with Cell Death
[6] = ≥5%, read-out: Min. Effective conc. for Mitotic Arrest (≥5%)
[7] = ≥5%, read-out: Min. Effective conc. for Polyploidy (≥5%)

| Structure (SMILES) | minimal effective concentration [1, 5] [µM] | minimal effective concentration [1, 6] [µM] | minimal effective concentration [1, 7] [µM] | minimal effective concentration [3] [µM] | other results |
| --- | --- | --- | --- | --- | --- |
| COCCCn1cc(-c2ccc3c(c2)N(Cc2ccc(OC)cc2)C(=O)CC(c2ncc(C)o2)=C3)cn1 [Compound 57, 1-(4-Methoxybenzyl)-8-(1-(3-methoxypropyl)-1H-pyrazol-4-yl)-4-(5-methyloxazol-2-yl)-1,3-dihydro-2H-benzo[b]azepin-2-one] | 0.001 to 1 | 0.001 to 1 | 0.001 to 1 | 0.001 to 1 | TGI % ([2]; 80 mg/kg, 20 days): A (greater than 55% and less than or equal to 70%) |
| COc1ccc(CN2C(=O)CC(c3ncc(C)o3)=Cc3ccc(-c4ccc(N)nc4)cc32)cc1 [Compound 42, 8-(6-aminopyridin-3-yl)-1-(4-methoxybenzyl)-4-(5-methyloxazol-2-yl)-1,3-dihydro-2H-benzo[b]azepin-2-one] | 0.001 to 1 | 0.001 to 1 | 0.001 to 1 | 0.001 to 1 | TGI % ([2]; 36 mg/kg, 13 days): C (greater than or equal to 35% and less than or equal to 45% μM) |
| COc1ccc(CN2C(=O)CC(c3ncc(C)o3)=Cc3ccc(-c4cnn(CC(C)O)c4)cc32)cc1 (centres unmarked) [Compound 61, 8-(1-(2-hydroxypropyl)-1H-pyrazol-4-yl)-1-(4-methoxybenzyl)-4-(5-methyloxazol-2-yl)-1,3-dihydro-2H-benzo[b]azepin-2-one] | 0.001 to 1 | 0.001 to 1 | 0.001 to 1 | 0.001 to 1 | TGI % ([4]; 10 mg/kg, 4 days-on, 3 days-off): A (greater than 55% and less than or equal to 70%) |
| COc1ccc(CN2C(=O)CC(c3ncc(C)o3)=Cc3ccc(-c4cnn(CCN5CCOCC5)c4)cc32)cc1 [Compound 38, 1-(4-methoxybenzyl)-4-(5-methyloxazol-2-yl)-8-(1-(2-morpholinoethyl)-1H-pyrazol-4-yl)-1,3-dihydro-2H-benzo[b]azepin-2-one] | 0.001 to 1 | 0.001 to 1 | 0.001 to 1 | 0.001 to 1 | TGI % ([2]; 36 mg/kg, 20 days): B (greater than 45% and less than or equal to 55%) |
| COc1ccc(CN2C(=O)CC(c3ncc(C)o3)=Cc3ccc(-c4cnn(CCO)c4)cc32)cc1 [Compound 36, 8-(1-(2-hydroxyethyl)-1H-pyrazol-4-yl)-1-(4-methoxybenzyl)-4-(5-methyloxazol-2-yl)-1,3-dihydro-2H-benzo[b]azepin-2-one] | 0.001 to 1 | 0.001 to 1 | 0.001 to 1 | 0.001 to 1 | TGI % ([2]; 15 mg/kg, 20 days): A (greater than 55% and less than or equal to 70%) |
| COc1ccc(CN2C(=O)CC(c3ncc(C)o3)=Cc3ccc(-c4cnn(CC(C)(C)O)c4)cc32)cc1 [Compound 37, 8-(1-(2-hydroxy-2-methylpropyl)-1H-pyrazol-4-yl)-1-(4-methoxybenzyl)-4-(5-methyloxazol-2-yl)-1,3-dihydro-2H-benzo[b]azepin-2-one] | 0.001 to 1 | 0.001 to 1 | 0.001 to 1 | 0.001 to 1 | TGI % ([4]; 8 mg/kg, 3 days-on, 4 days-off): B (greater than 45% and less than or equal to 55%); TGI % ([2]; 8 mg/kg, 20 days): A (greater than 55% and less than or equal to 70%) |
| COc1ccc(CN2C(=O)CC(c3cnco3)=Cc3ccc(-c4cnn(CC(C)(C)O)c4)cc32)cc1 [Compound 96, 8-(1-(2-Hydroxy-2-methylpropyl)-1H-pyrazol-4-yl)-1-(4-methoxybenzyl)-4-(oxazol-5-yl)-1,3-dihydro-2H-benzo[b]azepin-2-one] | 0.001 to 1 | 0.001 to 1 | 0.001 to 1 | 0.001 to 1 | TGI % ([4]; 20 mg/kg, 4 days-on, 3 days-off): A (greater than 55% and less than or equal to 70%) |
| COc1ccc(CN2C(=O)CC(c3ncc(C)o3)=Cc3ccc(-c4cnn(CC5CC5)c4)cc32)cc1 [Compound 53, 8-(1-(cyclopropylmethyl)-1H-pyrazol-4-yl)-1-(4-methoxybenzyl)-4-(5-methyloxazol-2-yl)-1,3-dihydro-2H-benzo[b]azepin-2-one] | 0.001 to 1 | 0.001 to 1 | 0.001 to 1 | 0.001 to 1 | TGI % ([2]; 40 mg/kg, 20 days): C (greater than or equal to 35% and less than or equal to 45% μM) |
| COc1ccc(CN2C(=O)CC(c3nnc(C4CC4)o3)=Cc3ccc(-c4cnn(CC(C)(C)O)c4)cc32)cc1 [Compound 94, 4-(5-Cyclopropyl-1,3,4-oxadiazol-2-yl)-8-(1-(2-hydroxy-2-methylpropyl)-1H-pyrazol-4-yl)-1-(4-methoxybenzyl)-1,3-dihydro-2H-benzo[b]azepin-2-one] | 0.001 to 1 | 0.001 to 1 | 0.001 to 1 | 0.001 to 1 | TGI % ([4]; 8 mg/kg, 4 days-on, 3 days-off): B (greater than 45% and less than or equal to 55%) |
| COc1ccc(CN2C(=O)CC(c3ncc(C)o3)=Cc3ccc(-c4cnn(C5COC5)c4)cc32)cc1 [Compound 54, 1-(4-Methoxybenzyl)-4-(5-methyloxazol-2-yl)-8-(1-(oxetan-3-yl)-1H-pyrazol-4-yl)-1,3-dihydro-2H-benzo[b]azepin-2-one] | 0.001 to 1 | 0.001 to 1 | 0.001 to 1 | 0.001 to 1 | TGI % ([2]; 50 mg/kg, 20 days): C (greater than or equal to 35% and less than or equal to 45% μM) |
| COc1ccc(CN2C(=O)CC(c3ncc(C)o3)=Cc3ccc(-c4ccc(=O)n(C)c4)cc32)cc1 [Compound 45, 1-(4-methoxybenzyl)-8-(1-methyl-6-oxo-1,6-dihydropyridin-3-yl)-4-(5-methyloxazol-2-yl)-1,3-dihydro-2H-benzo[b]azepin-2-one] | 0.001 to 1 | 0.001 to 1 | 0.001 to 1 | 0.001 to 1 | TGI % ([2]; 36 mg/kg, 20 days): A (greater than 55% and less than or equal to 70%) |
| COCCn1cc(-c2ccc3c(c2)N(Cc2ccc(OC)cc2)C(=O)CC(c2ncc(C)o2)=C3)cn1 [Compound 51, 1-(4-methoxybenzyl)-8-(1-(2-methoxyethyl)-1H-pyrazol-4-yl)-4-(5-methyloxazol-2-yl)-1,3-dihydro-2H-benzo[b]azepin-2-one] | 0.001 to 1 | 0.001 to 1 | 0.001 to 1 | 0.001 to 1 | TGI % ([2]; 15 mg/kg, 29 days): A (greater than 55% and less than or equal to 70%) |
| COc1ccc(CN2C(=O)CC(c3nnc(C4CC4)o3)=Cc3ccc(-c4cnn(CCN5CCOCC5)c4)cc32)cc1 [Compound 52, 4-(5-cyclopropyl-1,3,4-oxadiazol-2-yl)-1-(4-methoxybenzyl)-8-(1-(2-morpholinoethyl)-1H-pyrazol-4-yl)-1,3-dihydro-2H-benzo[b]azepin-2-one] | 0.001 to 1 | 0.001 to 1 | 0.001 to 1 | 0.001 to 1 |  |
